In patent US12227500B2, “Substituted pyrrolo[2,3-b]pyridines for suppressing toxic endoplasmic reticulum stress” (THE TRUSTEES OF COLUMBIA UNIVERSITY IN THE CITY OF NEW YORK, priority 2018, dated 2025) one finds remaining activity data, which are given here for nine compounds.

Holding throughout (test): Radiolabeled ATP kinase assay, panel of 60 kinases (Table S5)
Common to all, as to type: biochemical

Test [1] concerns the target T1, panel of 60 human kinases (Homo sapiens, UniProt P00519).
T1 construct: purchased Reaction Biology Corp
As to conditions: ABL1; 0.1 μM; 10 μM ATP; read-out: % Enzyme Activity (relative to DSMO controls). The method in brief:
(§1)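 Compounds at two concentrations, 0.1 μM and 0.5 μM, were screened for inhibition of 60 kinases in cell-free assays read out by radiolabeled ATP.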

Test [2] has as its target T2, panel of 60 human kinases (Homo sapiens, UniProt P11362).
T2 construct: purchased Reaction Biology Corp
To be noted: FGFR1; 0.1 μM; 10 μM ATP; read-out: % Enzyme Activity (relative to DSMO controls). The method in brief:
as §1

For test [3], the target named is T3, panel of 60 human kinases (Homo sapiens, UniProt P49760).
T3 construct: purchased Reaction Biology Corp
T3 sequence (P49760 whole entry): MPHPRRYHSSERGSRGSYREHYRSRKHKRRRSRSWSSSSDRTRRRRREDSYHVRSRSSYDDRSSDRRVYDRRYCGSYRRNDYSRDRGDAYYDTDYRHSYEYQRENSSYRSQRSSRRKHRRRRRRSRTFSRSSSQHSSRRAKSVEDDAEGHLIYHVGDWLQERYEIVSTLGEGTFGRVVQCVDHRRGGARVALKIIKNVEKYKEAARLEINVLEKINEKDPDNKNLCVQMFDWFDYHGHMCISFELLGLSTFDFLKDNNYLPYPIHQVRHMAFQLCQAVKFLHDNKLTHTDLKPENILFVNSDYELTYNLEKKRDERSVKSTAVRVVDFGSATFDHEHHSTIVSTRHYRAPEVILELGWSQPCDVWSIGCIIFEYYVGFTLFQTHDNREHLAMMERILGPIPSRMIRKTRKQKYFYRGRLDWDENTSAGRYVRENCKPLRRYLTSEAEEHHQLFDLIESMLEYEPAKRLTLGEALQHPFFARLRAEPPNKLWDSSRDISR
To be noted: CLK2; 0.1 μM; 10 μM ATP; read-out: % Enzyme Activity (relative to DSMO controls). The procedure, abridged:
as §1

Test [4] deals with T4, panel of 60 human kinases (Homo sapiens, UniProt Q07002).
T4 construct: purchased Reaction Biology Corp
T4 sequence (Q07002 whole entry): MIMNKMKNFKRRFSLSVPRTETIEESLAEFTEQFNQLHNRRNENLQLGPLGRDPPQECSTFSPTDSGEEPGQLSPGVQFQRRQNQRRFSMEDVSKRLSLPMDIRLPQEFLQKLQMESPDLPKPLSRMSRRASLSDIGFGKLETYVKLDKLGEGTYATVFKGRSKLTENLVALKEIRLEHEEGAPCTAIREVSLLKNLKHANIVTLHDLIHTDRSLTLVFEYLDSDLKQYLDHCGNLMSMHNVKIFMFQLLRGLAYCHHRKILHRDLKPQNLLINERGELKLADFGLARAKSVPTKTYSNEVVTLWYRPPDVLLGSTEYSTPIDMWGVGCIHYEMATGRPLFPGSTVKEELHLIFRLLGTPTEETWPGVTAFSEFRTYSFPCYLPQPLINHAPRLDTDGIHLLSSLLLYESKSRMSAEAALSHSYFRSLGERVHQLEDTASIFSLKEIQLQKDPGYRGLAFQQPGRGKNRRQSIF
To be noted: CDK18/cyclin Y (PCTK3); 0.1 μM; 10 μM ATP; read-out: % Enzyme Activity (relative to DSMO controls). The method in brief: as §1

For test [5], the target named is T5, panel of 60 human kinases (Homo sapiens, UniProt Q13470).
T5 construct: purchased Reaction Biology Corp
T5 sequence (Q13470 1-666): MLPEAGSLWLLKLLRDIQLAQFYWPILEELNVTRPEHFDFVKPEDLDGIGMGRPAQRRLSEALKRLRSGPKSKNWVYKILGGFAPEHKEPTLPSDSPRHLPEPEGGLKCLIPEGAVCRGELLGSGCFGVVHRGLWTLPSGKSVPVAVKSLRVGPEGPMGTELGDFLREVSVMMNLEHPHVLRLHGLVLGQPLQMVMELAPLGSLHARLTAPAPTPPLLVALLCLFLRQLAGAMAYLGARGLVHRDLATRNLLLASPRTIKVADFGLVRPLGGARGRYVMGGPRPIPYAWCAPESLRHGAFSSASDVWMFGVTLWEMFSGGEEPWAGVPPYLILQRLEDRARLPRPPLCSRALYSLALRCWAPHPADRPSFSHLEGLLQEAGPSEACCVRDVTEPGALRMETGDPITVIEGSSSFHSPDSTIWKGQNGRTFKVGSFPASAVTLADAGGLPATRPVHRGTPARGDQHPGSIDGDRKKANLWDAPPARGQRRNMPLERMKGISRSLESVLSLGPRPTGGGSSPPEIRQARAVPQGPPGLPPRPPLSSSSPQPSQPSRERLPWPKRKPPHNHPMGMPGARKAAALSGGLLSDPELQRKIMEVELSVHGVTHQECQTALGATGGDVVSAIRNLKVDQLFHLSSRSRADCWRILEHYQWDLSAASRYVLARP
To be noted: TNK1; 0.1 μM; 10 μM ATP; read-out: % Enzyme Activity (relative to DSMO controls). The method in brief:
as §1

The target of test [6] is T6, panel of 60 human kinases (Homo sapiens, UniProt Q16539).
T6 construct: purchased Reaction Biology Corp
T6 sequence (Q16539 whole entry): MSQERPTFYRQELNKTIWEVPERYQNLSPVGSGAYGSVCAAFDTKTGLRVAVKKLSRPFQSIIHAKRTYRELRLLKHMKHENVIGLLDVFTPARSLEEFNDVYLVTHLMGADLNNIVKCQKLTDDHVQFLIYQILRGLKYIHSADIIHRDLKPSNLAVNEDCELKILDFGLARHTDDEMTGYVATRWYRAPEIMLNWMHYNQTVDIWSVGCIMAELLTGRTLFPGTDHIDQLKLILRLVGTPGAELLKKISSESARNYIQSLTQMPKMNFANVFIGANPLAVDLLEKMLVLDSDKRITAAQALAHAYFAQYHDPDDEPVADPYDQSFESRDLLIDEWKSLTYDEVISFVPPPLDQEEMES
To be noted: P38a/MAPK14; 0.1 μM; 10 μM ATP; read-out: % Enzyme Activity (relative to DSMO controls). The method in brief:
as §1

In test [7] the target is T7, panel of 60 human kinases (Homo sapiens, UniProt Q99683).
T7 construct: purchased Reaction Biology Corp
T7 sequence (Q99683 1-1374): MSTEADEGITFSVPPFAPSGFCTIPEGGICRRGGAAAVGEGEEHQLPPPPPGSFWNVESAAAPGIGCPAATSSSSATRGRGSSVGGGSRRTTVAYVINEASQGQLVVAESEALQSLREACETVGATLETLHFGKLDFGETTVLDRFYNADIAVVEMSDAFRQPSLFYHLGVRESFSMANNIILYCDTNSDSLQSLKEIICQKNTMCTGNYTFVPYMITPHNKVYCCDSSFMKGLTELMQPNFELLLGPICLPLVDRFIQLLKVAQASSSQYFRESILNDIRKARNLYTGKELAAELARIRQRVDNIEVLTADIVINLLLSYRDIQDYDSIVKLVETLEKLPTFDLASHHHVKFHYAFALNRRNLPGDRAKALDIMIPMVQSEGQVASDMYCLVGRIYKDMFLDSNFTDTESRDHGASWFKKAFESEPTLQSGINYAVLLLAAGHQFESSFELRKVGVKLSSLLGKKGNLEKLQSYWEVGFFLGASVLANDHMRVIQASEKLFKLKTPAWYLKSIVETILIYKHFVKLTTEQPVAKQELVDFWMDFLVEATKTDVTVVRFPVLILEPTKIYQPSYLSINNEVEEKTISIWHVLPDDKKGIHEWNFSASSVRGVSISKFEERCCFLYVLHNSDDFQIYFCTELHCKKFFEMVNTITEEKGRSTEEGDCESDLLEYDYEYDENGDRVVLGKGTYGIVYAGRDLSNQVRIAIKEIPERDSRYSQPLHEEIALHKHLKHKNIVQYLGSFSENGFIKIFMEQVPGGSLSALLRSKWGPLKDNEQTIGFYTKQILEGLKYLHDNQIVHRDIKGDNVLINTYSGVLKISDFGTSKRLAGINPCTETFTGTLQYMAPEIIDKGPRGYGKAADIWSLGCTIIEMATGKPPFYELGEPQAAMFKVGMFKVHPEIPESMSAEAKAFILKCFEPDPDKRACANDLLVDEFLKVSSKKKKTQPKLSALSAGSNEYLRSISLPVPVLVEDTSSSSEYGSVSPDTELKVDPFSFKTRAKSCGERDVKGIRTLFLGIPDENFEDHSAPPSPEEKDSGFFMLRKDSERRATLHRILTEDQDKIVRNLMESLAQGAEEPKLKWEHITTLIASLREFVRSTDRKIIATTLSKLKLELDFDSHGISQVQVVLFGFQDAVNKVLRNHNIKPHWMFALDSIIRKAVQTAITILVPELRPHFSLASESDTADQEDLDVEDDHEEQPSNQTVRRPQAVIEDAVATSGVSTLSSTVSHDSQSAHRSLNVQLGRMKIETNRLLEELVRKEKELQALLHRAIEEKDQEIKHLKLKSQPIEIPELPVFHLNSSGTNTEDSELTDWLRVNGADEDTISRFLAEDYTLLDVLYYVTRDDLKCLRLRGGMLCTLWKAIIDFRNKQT
As to conditions: ASK1/MAP3K5; 0.1 μM; 10 μM ATP; read-out: % Enzyme Activity (relative to DSMO controls). The procedure, abridged: as §1

T1 sequence (P00519 whole entry): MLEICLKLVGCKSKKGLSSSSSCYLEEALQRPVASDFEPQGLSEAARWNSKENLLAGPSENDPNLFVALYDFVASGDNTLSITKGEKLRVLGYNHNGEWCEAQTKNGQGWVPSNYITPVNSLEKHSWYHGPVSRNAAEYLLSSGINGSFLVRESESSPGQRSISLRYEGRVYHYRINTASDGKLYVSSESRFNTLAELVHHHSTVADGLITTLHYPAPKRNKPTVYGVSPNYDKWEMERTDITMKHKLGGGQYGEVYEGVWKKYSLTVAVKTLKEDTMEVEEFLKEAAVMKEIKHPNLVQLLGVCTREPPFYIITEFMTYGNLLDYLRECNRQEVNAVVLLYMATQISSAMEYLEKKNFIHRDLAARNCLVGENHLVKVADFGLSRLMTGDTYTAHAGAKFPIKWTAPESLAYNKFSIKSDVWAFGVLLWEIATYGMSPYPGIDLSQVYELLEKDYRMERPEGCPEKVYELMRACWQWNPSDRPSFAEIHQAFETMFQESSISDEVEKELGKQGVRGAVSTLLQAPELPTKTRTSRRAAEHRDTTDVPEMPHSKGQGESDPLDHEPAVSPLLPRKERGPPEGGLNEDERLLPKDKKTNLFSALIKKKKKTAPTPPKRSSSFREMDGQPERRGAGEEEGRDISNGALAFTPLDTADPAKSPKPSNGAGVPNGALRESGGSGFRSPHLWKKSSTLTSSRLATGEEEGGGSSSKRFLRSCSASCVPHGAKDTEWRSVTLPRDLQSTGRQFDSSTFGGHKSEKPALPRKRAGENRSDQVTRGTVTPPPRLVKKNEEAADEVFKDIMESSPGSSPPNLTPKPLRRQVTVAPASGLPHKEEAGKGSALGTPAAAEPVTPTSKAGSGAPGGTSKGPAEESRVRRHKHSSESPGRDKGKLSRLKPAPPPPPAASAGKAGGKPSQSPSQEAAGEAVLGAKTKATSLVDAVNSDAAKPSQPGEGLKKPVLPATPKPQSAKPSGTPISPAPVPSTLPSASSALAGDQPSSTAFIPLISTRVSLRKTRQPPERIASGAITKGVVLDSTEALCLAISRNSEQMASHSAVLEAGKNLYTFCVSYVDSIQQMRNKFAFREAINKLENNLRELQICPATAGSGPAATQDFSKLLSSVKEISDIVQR
T2 sequence (P11362 22-822): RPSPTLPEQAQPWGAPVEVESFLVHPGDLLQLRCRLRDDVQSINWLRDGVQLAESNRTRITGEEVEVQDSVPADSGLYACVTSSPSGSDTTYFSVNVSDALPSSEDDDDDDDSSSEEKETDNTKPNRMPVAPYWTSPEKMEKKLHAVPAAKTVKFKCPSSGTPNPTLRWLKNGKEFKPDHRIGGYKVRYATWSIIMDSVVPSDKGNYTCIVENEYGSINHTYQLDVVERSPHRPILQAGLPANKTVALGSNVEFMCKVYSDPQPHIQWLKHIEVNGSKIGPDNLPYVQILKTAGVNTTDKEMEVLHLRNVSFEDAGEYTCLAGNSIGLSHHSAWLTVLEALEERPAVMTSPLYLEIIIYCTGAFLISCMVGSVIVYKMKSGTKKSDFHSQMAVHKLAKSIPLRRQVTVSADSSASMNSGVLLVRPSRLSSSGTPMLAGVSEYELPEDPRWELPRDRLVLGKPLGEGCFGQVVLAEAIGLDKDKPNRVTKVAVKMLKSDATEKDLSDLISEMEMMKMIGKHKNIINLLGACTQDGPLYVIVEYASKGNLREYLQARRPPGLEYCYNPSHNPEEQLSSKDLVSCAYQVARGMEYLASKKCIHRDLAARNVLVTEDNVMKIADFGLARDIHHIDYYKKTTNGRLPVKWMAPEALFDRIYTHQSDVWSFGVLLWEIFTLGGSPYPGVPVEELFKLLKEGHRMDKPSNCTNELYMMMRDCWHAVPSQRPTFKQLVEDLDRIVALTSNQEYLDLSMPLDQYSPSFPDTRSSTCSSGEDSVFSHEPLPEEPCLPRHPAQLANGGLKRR

As to `CN1CCN(Cc2ccc(-c3cnc4[nH]cc(-c5ccc6[nH]ccc6c5)c4c3)cc2)CC1` [Compound 1, 3-(1H-Indol-5-yl)-5-(4-((4-methylpiperazin-1-yl)methyl)phenyl)-1H-pyrrolo[2,3-b]pyridine, reference compound], the remaining activity at 0.1 µM in test [1] was 46.6%; in test [2] it was 82.7%; in test [3], 22.8%; in test [4], 103%; in test [5], 28.8%; in test [6] it was 108%. Besides, the remaining activity at 0.1 µM in test [7] worked out at 90.8%.
Take `CN1CCN(Cc2ccc(-c3cnc4[nH]cc(-c5cccc(Cl)c5)c4c3)cc2)CC1` [Compound 7ad, 3-(3-Chlorophenyl)-5-(4-((4-methylpiperazin-1-yl)methyl)phenyl)-1H-pyrrolo[2,3-b]pyridine]: the remaining activity at 0.1 µM in test [1] was determined as 77.3%; in test [2], 98.2%; in test [3], 79.8%; in test [4], 112%; in test [5], 53.5%; in test [6] it was 105%. Further, the remaining activity at 0.1 µM in test [7] was 95.4%.
Turning to `CN1CCN(Cc2ccc(-c3cnc4[nH]cc(-c5cnn(Cc6ccccc6)c5)c4c3)cc2)CC1` [Compound 7ah, 3-(1-Benzyl-1H-pyrazol-4-yl)-5-(4-((4-methylpiperazin-1-yl)methyl)phenyl)-1H-pyrrolo[2,3-b]pyridine], the remaining activity at 0.1 µM in test [1] is 81%; in test [2], 91.4%; in test [3] it was 4.24%; in test [4], 16.1%; in test [5], 37.8%; in test [6], 109%. In addition, the remaining activity at 0.1 µM in test [7] amounted to 95.6%.
As for `Cc1nn(C)c(C)c1-c1c[nH]c2ncc(-c3ccc(CN4CCN(C)CC4)cc3)cc12` [Compound 7ai, 5-(4-((4-Methylpiperazin-1-yl)methyl)phenyl)-3-(1,3,5-trimethyl-1H-pyrazol-4-yl)-1H-pyrrolo[2,3-b]pyridine], the remaining activity at 0.1 µM in test [1] is 26.3%; in test [2] it was 97.5%; in test [3], 52.5%; in test [4], 100%; in test [5], 63.6%; in test [6] it was 98.2%. In addition, in test [7], the remaining activity at 0.1 µM is 96.2%.
Take `CN1CCN(Cc2ccc(-c3cnc4[nH]cc(-c5ccccc5Cl)c4c3)cc2)CC1` [Compound 7as, 3-(2-Chlorophenyl)-5-(4-((4-methylpiperazin-1-yl)methyl)phenyl)-1H-pyrrolo[2,3-b]pyridine]: the remaining activity at 0.1 µM in test [1] was 5.92%; in test [2], 77.9%; in test [3], 22.5%; in test [4] it was 95.5%; in test [5], 33.9%; in test [6], 113%. The remaining activity at 0.1 µM in test [7] was 87.6%.
For `COc1ccccc1-c1c[nH]c2ncc(-c3ccc(CN4CCN(C)CC4)cc3)cc12` [Compound 7at, 3-(2-Methoxyphenyl)-5-(4-((4-methylpiperazin-1-yl)methyl)phenyl)-1H-pyrrolo[2,3-b]pyridine], the remaining activity at 0.1 µM in test [1] came to 19%; in test [2] it was 96.4%; in test [3] it was 90.9%; in test [4] it was 97.1%; in test [5] it was 38.4%; in test [6], 96.2%. Further, the remaining activity at 0.1 µM in test [7] was 96.3%.
As to `CN1CCN(Cc2ccc(-c3cnc4[nH]cc(-c5ccc6c(c5)OCCO6)c4c3)cc2)CC1` [Compound 7d, 3-(2,3-Dihydrobenzo[b][1,4]dioxin-6-yl)-5-(4-((4-methylpiperazin-1-yl)methyl)phenyl)-1H-pyrrolo[2,3-b]pyridine], the remaining activity at 0.1 µM came to 74.5% in test [1]; 93.2% in test [2]; 2.71% in test [3]; 82.8% in test [4]; 44.3% in test [5]; 102% in test [6]. Further, in test [7], the remaining activity at 0.1 µM was determined as 80.2%.
With `CN1CCN(Cc2ccc(-c3cnc4[nH]cc(-c5ccncc5)c4c3)cc2)CC1` [Compound 7n, 5-(4-((4-Methylpiperazin-1-yl)methyl)phenyl)-3-(pyridin-4-yl)-1H-pyrrolo[2,3-b]pyridine], the remaining activity at 0.1 µM in test [1] was 88.4%; in test [2], 100%; in test [3], 23.6%; in test [4], 24%; in test [5], 87.8%; in test [6], 101%. In test [7], the remaining activity at 0.1 µM amounted to 95.4%.
As to `CN1CCN(Cc2ccc(-c3cnc4[nH]cc(-c5ccoc5)c4c3)cc2)CC1` [Compound 7w, 3-(Furan-3-yl)-5-(4-((4-methylpiperazin-1-yl)methyl)phenyl)-1H-pyrrolo[2,3-b]pyridine], the remaining activity at 0.1 µM in test [1] amounted to 64.8%; in test [2], 93.1%; in test [3] it was 59.2%; in test [4], 94.5%; in test [5], 73.2%; in test [6], 110%. Also, in test [7], the remaining activity at 0.1 µM was determined as 96%.
